Reference: PubChem BioAssay AID256 (DTP/NCI, 2004)
Values joined by “and” are separate entries in the source; they are usually repeats but may differ in a detail not shown here. Equal values may be shown once. Inconclusive results and toxic doses are left out. The calls were made as follows: active = survival T/C of 150% or more; inactive = T/C below 125% in these data.

System: CD2F1 mice, L1210 leukemia ip, survival T/C
Assay: NCI In Vivo Anticancer Drug Screen. Data for tumor model L1210 Leukemia (intraperitoneal) in CD2F1 (CDF1) mice
Settings: higher = longer survival
How it was run: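 Antitumor effect is scored in animals hosting a serially transplanted tumor. Values compare compound-dosed animals against vehicle-only controls as a simple quotient.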

[1] = endpoint: mean survival time, dose: 25.0 mg/kg/injection, schedule: Q01DX009 (ip), vehicle: saline with Tween-80
[2] = endpoint: mean survival time, dose: 200.0 mg/kg/injection, schedule: Q01DX001 (ip), vehicle: saline with Tween-80
[3] = endpoint: mean survival time, dose: 100.0 mg/kg/injection, schedule: Q01DX001 (ip), vehicle: saline
[4] = endpoint: mean survival time, dose: 200.0 mg/kg/injection, schedule: Q01DX001 (ip), vehicle: saline
[5] = endpoint: mean survival time, dose: 400.0 mg/kg/injection, schedule: Q01DX001 (ip), vehicle: saline
[6] = endpoint: mean survival time, dose: 100.0 mg/kg/injection, schedule: Q04DX003 (ip), vehicle: saline with Tween-80
[7] = endpoint: mean survival time, dose: 200.0 mg/kg/injection, schedule: Q04DX003 (ip), vehicle: saline with Tween-80
[8] = endpoint: mean survival time, dose: 100.0 mg/kg/injection, schedule: Q04DX002 (ip), vehicle: saline with Tween-80
[9] = endpoint: mean survival time, dose: 200.0 mg/kg/injection, schedule: Q04DX002 (ip), vehicle: saline with Tween-80
[10] = endpoint: mean survival time, dose: 400.0 mg/kg/injection, schedule: Q04DX002 (ip), vehicle: saline with Tween-80
[11] = endpoint: mean survival time, dose: 100.0 mg/kg/injection, schedule: Q01DX001 (ip), vehicle: saline with Tween-80
[12] = endpoint: mean survival time, dose: 400.0 mg/kg/injection, schedule: Q01DX001 (ip), vehicle: saline with Tween-80

Measured: T/C

CC(C)(C)CC(C)(C)NCC(O)COc1ccc(C(C)(C)c2ccc(OCC(O)CNC(C)(C)CC(C)(C)C)cc2)cc1 (configuration not stated)
inactive: endpoint: mean survival time, dose: 3.0 mg/kg/injection, schedule: Q01DX009 (ip), vehicle: saline with Tween-80 102 % of control | endpoint: mean survival time, dose: 3.12 mg/kg/injection, schedule: Q01DX009 (ip), vehicle: Klucel (hydroxypropylcellulose) (HPC) 93 % of control | endpoint: mean survival time, dose: 6.0 mg/kg/injection, schedule: Q01DX009 (ip), vehicle: saline with Tween-80 100 % of control | endpoint: mean survival time, dose: 6.25 mg/kg/injection, schedule: Q01DX009 (ip), vehicle: Klucel (hydroxypropylcellulose) (HPC) 94 % of control | endpoint: mean survival time, dose: 12.0 mg/kg/injection, schedule: Q01DX009 (ip), vehicle: saline with Tween-80 94 % of control | endpoint: mean survival time, dose: 12.5 mg/kg/injection, schedule: Q01DX009 (ip), vehicle: Klucel (hydroxypropylcellulose) (HPC) 100 % of control

COC(=O)NC1C(C)OC(OC2C/C=C(/C)C3C=CC4C(OC5CC(OC6CCC(OC7CC(O)C(OC8CCC(O)C(C)O8)C(C)O7)C(C)O6)C(OC(C)=O)C(C)O5)C(C)CC(C)C4C3(C)/C(O)=C3/C(=O)OC4(CC(C=O)=CC(O)C4/C=C\2C)C3=O)CC1(C)[N+](=O)[O-] (configuration not stated)
inactive: endpoint: median survival time, dose: 1.25 mg/kg/injection, schedule: Q01DX009 (ip), vehicle: water 106 % of control | endpoint: median survival time, dose: 2.5 mg/kg/injection, schedule: Q01DX009 (ip), vehicle: water 106 % of control | endpoint: median survival time, dose: 5.0 mg/kg/injection, schedule: Q01DX009 (ip), vehicle: water 113 % of control | endpoint: median survival time, dose: 10.0 mg/kg/injection, schedule: Q01DX009 (ip), vehicle: water 121 % of control

O=NCC1(Cl)CC2C=CC1C2 (configuration not stated)
inactive: endpoint: mean survival time, dose: 6.25 mg/kg/injection, schedule: Q01DX009 (ip), vehicle: saline with Tween-80 97 % of control | endpoint: mean survival time, dose: 12.5 mg/kg/injection, schedule: Q01DX009 (ip), vehicle: saline with Tween-80 98 % of control | [1] 98 % of control

Oc1ccc(Br)cc1/C=N/c1nc(-c2ccccc2)cs1.Oc1ccc(Br)cc1/C=N/c1nc(-c2ccccc2)cs1.[Cu]
inactive: endpoint: mean survival time, dose: 12.5 mg/kg/injection, schedule: Q01DX001 (ip), vehicle: saline 87 % of control | endpoint: mean survival time, dose: 25.0 mg/kg/injection, schedule: Q01DX001 (ip), vehicle: saline 100 % of control | endpoint: mean survival time, dose: 50.0 mg/kg/injection, schedule: Q01DX001 (ip), vehicle: saline 91 % of control | [2] 93 % of control

CCOC(=O)Nc1cc2c(c(N)n1)N=C(c1ccccc1)CO2
inactive: endpoint: median survival time, dose: 25.0 mg/kg/injection, schedule: Q01DX009 (ip), vehicle: saline with Tween-80 97 % of control | endpoint: median survival time, dose: 50.0 mg/kg/injection, schedule: Q01DX009 (ip), vehicle: saline with Tween-80 117 % of control and 107 % of control and 108 % of control | endpoint: median survival time, dose: 100.0 mg/kg/injection, schedule: Q01DX009 (ip), vehicle: saline with Tween-80 122 % of control and 112 % of control (2×) | endpoint: median survival time, dose: 200.0 mg/kg/injection, schedule: Q01DX009 (ip), vehicle: saline with Tween-80 115 % of control and 116 % of control and 117 % of control

O=C(O)CSC1=NCCN1 (tested in a mixture with another compound)
inactive: [3] 90 % of control | [4] 93 % of control | [5] 93 % of control

N#CCOc1cccc([N+](=O)[O-])c1
inactive: [6] 103 % of control | [7] 96 % of control

C=CC(=O)c1ccccc1
inactive: [8] 111 % of control

O=C(/C=C/c1ccccc1)Nc1ccccc1Cl
inactive: [8] 105 % of control | [9] 98 % of control | [10] 98 % of control

NC(=O)c1ncnnc1N
inactive: endpoint: mean survival time, dose: 100.0 mg/kg/injection, schedule: Q01DX001 (ip), vehicle: carboxymethylcellulose (CMC) 93 % of control | endpoint: mean survival time, dose: 200.0 mg/kg/injection, schedule: Q01DX001 (ip), vehicle: carboxymethylcellulose (CMC) 102 % of control | endpoint: mean survival time, dose: 400.0 mg/kg/injection, schedule: Q01DX001 (ip), vehicle: carboxymethylcellulose (CMC) 102 % of control

CCOC1CCN(CCCn2c3ccccc3c3ccccc32)CC1
inactive: endpoint: mean survival time, dose: 25.0 mg/kg/injection, schedule: Q04DX002 (ip), vehicle: saline with Tween-80 95 % of control | endpoint: mean survival time, dose: 50.0 mg/kg/injection, schedule: Q04DX002 (ip), vehicle: saline with Tween-80 100 % of control | [8] 97 % of control and 111 % of control

O=C([O-])C1OC([n+]2ccccc2)C(O)C(O)C1O (configuration not stated)
inactive: endpoint: median survival time, dose: 12.5 mg/kg/injection, schedule: Q01DX005 (ip), vehicle: saline 101 % of control | endpoint: median survival time, dose: 25.0 mg/kg/injection, schedule: Q01DX005 (ip), vehicle: saline 100 % of control | endpoint: median survival time, dose: 50.0 mg/kg/injection, schedule: Q01DX005 (ip), vehicle: saline 107 % of control | endpoint: median survival time, dose: 100.0 mg/kg/injection, schedule: Q01DX005 (ip), vehicle: saline 112 % of control | endpoint: median survival time, dose: 200.0 mg/kg/injection, schedule: Q01DX005 (ip), vehicle: saline 102 % of control

CCOC(=O)C(C(=O)OC)C(=O)OCC
inactive: [3] 95 % of control | [4] 103 % of control | [5] 103 % of control

O=C(O)c1cccc2[nH]c(=O)oc(=O)c12
inactive: [6] 103 % of control | [7] 95 % of control | endpoint: mean survival time, dose: 400.0 mg/kg/injection, schedule: Q04DX003 (ip), vehicle: saline with Tween-80 93 % of control

CN1C2CCC1C(CO)C(O)C2 (configuration not stated)
inactive: endpoint: mean survival time, dose: 100.0 mg/kg/injection, schedule: Q04DX002 (ip), vehicle: saline 105 % of control | endpoint: mean survival time, dose: 200.0 mg/kg/injection, schedule: Q04DX002 (ip), vehicle: saline 94 % of control | endpoint: mean survival time, dose: 400.0 mg/kg/injection, schedule: Q04DX002 (ip), vehicle: saline 97 % of control

Cc1ccc(C)c(NC(=O)NC2CCCCC2)c1
inactive: [11] 98 % of control | [2] 101 % of control | [12] 101 % of control

O=C(O)c1cc(-c2ccccc2)nc2c1ccc1ccccc12
inactive: [3] 103 % of control | [4] 102 % of control | [5] 97 % of control

CC(O)c1cccc([N+](=O)[O-])c1 (configuration not stated)
inactive: [11] 93 % of control | [2] 97 % of control | [12] 93 % of control

CC(=O)c1cc2c(cc1C(C)C)CC[C@H]1[C@](C)(C#N)CCC[C@]21C
inactive: [1] 104 % of control | endpoint: mean survival time, dose: 50.0 mg/kg/injection, schedule: Q01DX009 (ip), vehicle: saline with Tween-80 90 % of control | endpoint: mean survival time, dose: 100.0 mg/kg/injection, schedule: Q01DX009 (ip), vehicle: saline with Tween-80 98 % of control | [6] 87 % of control

c1ccc(Oc2ccc(Nc3c4ccccc4nc4ccccc34)cc2)cc1
inactive: [8] 101 % of control | [9] 101 % of control | [10] 104 % of control

CCOC/C(C)=C/Cl
inactive: endpoint: mean survival time, dose: 100.0 mg/kg/injection, schedule: Q01DX009 (ip), vehicle: acetone 106 % of control | endpoint: mean survival time, dose: 200.0 mg/kg/injection, schedule: Q01DX009 (ip), vehicle: acetone 103 % of control

Cc1ccccc1OCCO
inactive: endpoint: mean survival time, dose: 50.0 mg/kg/injection, schedule: Q01DX009 (ip), vehicle: other 100 % of control | endpoint: mean survival time, dose: 100.0 mg/kg/injection, schedule: Q01DX009 (ip), vehicle: other 116 % of control and 100 % of control | endpoint: mean survival time, dose: 200.0 mg/kg/injection, schedule: Q01DX009 (ip), vehicle: other 102 % of control and 103 % of control | endpoint: mean survival time, dose: 400.0 mg/kg/injection, schedule: Q01DX009 (ip), vehicle: other 100 % of control

NC(=O)c1ncnc2c1ncn2C1OC(CO)C(O)C1O (configuration not stated)
inactive: endpoint: mean survival time, dose: 12.5 mg/kg/injection, schedule: Q01DX005 (ip), vehicle: water 104 % of control and 102 % of control | endpoint: mean survival time, dose: 25.0 mg/kg/injection, schedule: Q01DX005 (ip), vehicle: water 104 % of control and 97 % of control | endpoint: mean survival time, dose: 50.0 mg/kg/injection, schedule: Q01DX005 (ip), vehicle: water 106 % of control and 96 % of control | endpoint: mean survival time, dose: 100.0 mg/kg/injection, schedule: Q01DX005 (ip), vehicle: water 110 % of control and 100 % of control | endpoint: mean survival time, dose: 200.0 mg/kg/injection, schedule: Q01DX005 (ip), vehicle: water 110 % of control and 96 % of control
